“Also recorded” adds a separate entry of the source.

What is called IC50 is the concentration that inhibits the measured activity by half.

A short description of data set [1]: total radioactivity in whole blood of patients (LSC). The class given is in vivo, human. As to conditions: n = 4. The text has this:
Part 1 of the study included a screening phase of up to 28 days prior to drug administration to assess eligibility. Patients were admitted to the clinical research unit (CRU) at Royal Liverpool University Hospital (Liverpool, UK)/Clatterbridge Cancer Centre NHS Foundation Trust (Bebington, Wirral, UK) on day −1 and received a single dose of 60‐mg/100 μCi [^14C]‐pamiparib orally the morning of day 1. Patients remained in the CRU until completion of assessments on day 7, when discharge criteria of ≈90% of the radioactive dose being recovered or <1% of the radioactive dose being recovered in urine and feces for 2 consecutive 24‐hour collection intervals were met. […]
Patients fasted overnight and 2 hours after oral administration of a single 60‐mg dose containing ≈100 μCi (3.7‐3.9 MBq) of [^14C]‐pamiparib with ≈240 mL of room‐temperature water or juice (orange or grape). The residual radioactivity present in each vial postdose was corrected from the dose. The radioactive dose of 100 μCi of [^14C]‐pamiparib provided minimum risk to patients according to the dosimetry calculation from a quantitative whole‐body autoradiography study in male and female Long Evans rats; the dose also provided sufficient signal for total radioactivity counting and quantitative radioprofiling in blood, plasma, and excreta (data on file). […]

The test system of the next data set is CYP3A. Nature of the data set: CYP450 phenotyping in HLMs with CYP3A inhibitor ketoconazole. The class given is in vitro ADME, human. As to conditions: 90‐minute HLM incubation with CYP3A4 inhibitor ketoconazole (1 μM). On the procedure: Metabolic stability in human liver microsomes (HLMs) and cytochrome P450 (CYP450) phenotyping assays were conducted in 3D BioOptima (Suzhou, China) using validated methodology, [13] to determine the intrinsic clearance and enzymes responsible for metabolism of pamiparib. HLMs for microsome stability was from BD Biosciences (Woburn, New York). For phenotyping, HLMs and recombinant P450 (rCYP) were from Corning (Woburn, New York). Pamiparib (1 μM) was incubated with pooled HLM (0.5 mg/mL), NADPH (1 mM), and MgCl2 (3 mM) terminated at 0, 5, 15, 30, 60, and 90 minutes. The intrinsic clearance was calculated as 0.693/(t1/2 × HLM concentration), where t1/2 is the half‐life of pamiparib determined in HLMs. For phenotyping in HLMs, pamiparib (1 μM) was incubated in the absence or presence of isoform‐selective inhibitors: 0.2 μM α‐naphthoflavone for CYP1A2, 2 μM clopidogrel for CYP2B6, 16 μM montelukast for CYP2C8, 10 μM sulfaphenazole for CYP2C9, 30 μM nootkatone for CYP2C19, 2 μM quinidine for CYP2D6, and 1 μM ketoconazole for CYP3A. The following isoform‐selective probe substrates served as positive controls: 40 μM phenacetin for CYP1A2, 100 μM bupropion for CYP2B6, 2 μM amodiaquine for CYP2C8, 5 μM diclofenac for CYP2C9, 40 μM S‐mephenytoin for CYP2C19, 5 μM dextromethorphan for CYP2D6, and 2 μM midazolam for CYP3A4. […] Pamiparib, M1, and M2 were analyzed by LC‐MS/MS.

The test system of another data set is PARP activity. Set-up: method as in PMID 33264017. As to conditions: read-out: inhibition of PARP activity in cellular PARylation assay, IC50; cited from earlier work.
Details of data set [2]: method as in PMID 32652442. As to conditions: after oral administration in mice; cited from earlier work.

With `C[C@]12CCCN1CC1=NNC(=O)c3cc(F)cc4[nH]c2c1c34` [Pamiparib], the “AUC0‐∞ ratio blood/plasma, geometric mean (CV%)” value in data set [1] was “≈ 0.764; also recorded: ≈ 0.76”. This compound also came in with a pamiparib remaining with CYP3A of 63.1%. Further, in the data set with PARP activity, the IC50 was 0.2 nM. The brain penetrance result in data set [2] is “brain penetrance”.

These data come from paper PMC8453745, “Human Mass Balance and Metabolite Profiling of [^14C]‐Pamiparib, a Poly (ADP‐Ribose) Polymerase Inhibitor, in Patients With Advanced Cancer” (Clinical Pharmacology in Drug Development, 2021).
